Laboratory results: PMC5458078, “Global mapping of CARM1 substrates defines enzyme specificity and substrate recognition” (Nature Communications, 2017)
Like-named read-outs stand apart in the source and are kept apart here.

Experiments:
MCF7 cells = test: Quantitative nanoLC-MS/MS (TMT) of ADMA-containing peptides, CARM1 KO vs parental; format: cell-based, human; parameters: Fold change KO/WT: scale not given here
MCF7 CARM1 KO cells = test: Quantitative MS of ADMA-containing peptides in MCF7 CARM1 KO cells expressing CARM1 28-608 or CARM1 140-608, and in CARM1 KO; format: cell-based, human
[1] = MCF7, CARM1 KO vs WT, three biological replicates each
[2] = CARM1 140-608 vs WT, mean of 3 replicates, log2
[3] = KO vs WT, mean of 3 replicates, log2
[4] = ADMA-containing peptide, CARM1 knockout (KO) vs wild type (WT) MCF7 cells, 6-plex TMT experiment #1, three biological replicates each, sheet "MCF7"
[5] = difference of log2 means, CARM1 140-608 vs WT
[6] = difference of log2 means, KO vs WT
[7] = ADMA-containing peptide, MCF7, CARM1 knockout (KO1-3) vs wild type (WT1-3), TMT 6-plex experiment #1
[8] = MCF7, CARM1 KO (KO1-KO3) vs wild type (WT1-WT3)
[9] = CARM1 140-608 vs WT, mean of 3 replicates (log2 scale)
[10] = KO vs WT, mean of 3 replicates (log2 scale)
[11] = MCF7 CARM1 knockout vs wild type, 3 biological replicates each, values are on log2 scale
[12] = MCF7, CARM1 knockout vs wild type, n = 3 each
[13] = ratio on log2 scale, mean of 3 replicates
[14] = CARM1 140-608 versus WT, mean of three replicates (log2)
[15] = KO versus WT, mean of three replicates (log2)
[16] = log2 scale ratio, mean of n = 3
[17] = CARM1 140-608 versus WT, difference of mean log2 values
[18] = CARM1 KO versus WT, difference of mean log2 values
[19] = mean, CARM1 140-608 versus WT (log2 scale)
[20] = mean, CARM1 KO versus WT (log2 scale)

Substance: TSSGLFPrIPLQPQAPVSSIGSPVGTPK
- Fold change KO/WT (MCF7 cells; [1]): -2.869
- CARM1 140-608/WT (MCF7 CARM1 KO cells; [2]): 0.8175
- KO/WT (MCF7 CARM1 KO cells; [3]): -2.603

Substance: GPVGQALPrPQAPPrLQSLMGTVQQGAQSWQQR
- Fold change KO/WT (MCF7 cells; [4]): -3.859
- CARM1 140-608/WT (MCF7 CARM1 KO cells; [5]): -1.639
- KO/WT (MCF7 CARM1 KO cells; [6]): -3.859

Substance: GMYNQrYHCPVPK
- Fold change KO/WT (MCF7 cells; [7]): -2.857
- CARM1 140-608/WT (MCF7 CARM1 KO cells): -2.175
- KO/WT (MCF7 CARM1 KO cells): -2.857

Substance: MGTPVPrPPQDMGQIGVRTPLGPrVAAPVGPVGPTPTVLPMGAPVPrPR
- Fold change KO/WT (MCF7 cells; [8]): -2.512
- CARM1 140-608/WT (MCF7 CARM1 KO cells; [9]): -3.81
- KO/WT (MCF7 CARM1 KO cells; [10]): -4.903

Substance: QPPPLQQQArFIQPrPTLNQPPPPLIrPANSMPPR
- Fold change KO/WT (MCF7 cells; [8]): -1.373
- CARM1 140-608/WT (MCF7 CARM1 KO cells; [9]): 1.096
- KO/WT (MCF7 CARM1 KO cells; [10]): -1.373

Substance: ISSSSFSrVGSSNFR
- Fold change KO/WT (MCF7 cells; [11]): -3.151
- CARM1 140-608/WT (MCF7 CARM1 KO cells): -2.763
- KO/WT (MCF7 CARM1 KO cells): -3.151

Substance: TYQASSAAFrYTAGTPYK
- Fold change KO/WT (MCF7 cells; [12]): -4.425
- CARM1 140-608/WT (MCF7 CARM1 KO cells; [13]): -4.171
- KO/WT (MCF7 CARM1 KO cells; [13]): -4.425

Substance: RGPLSQNGSFGPSPVSGGECSPPLTVEPPVrPLSATLNR
- Fold change KO/WT (MCF7 cells; [4]): -2.59
- CARM1 140-608/WT (MCF7 CARM1 KO cells; [5]): -1.692
- KO/WT (MCF7 CARM1 KO cells; [6]): -2.59

Substance: GGrGrGSLNHMVVDHRPK
- Fold change KO/WT (MCF7 cells; [8]): 0.3337
- CARM1 140-608/WT (MCF7 CARM1 KO cells; [9]): 0.3773
- KO/WT (MCF7 CARM1 KO cells; [10]): 0.3337

Substance: LQNAFWEHGASrAMLPGSPLFTrAPPPK
- Fold change KO/WT (MCF7 cells; [8]): -2.217
- CARM1 140-608/WT (MCF7 CARM1 KO cells; [14]): -1.727
- KO/WT (MCF7 CARM1 KO cells; [15]): -2.217

Substance: LGHDPYrLGHDAYrLGQDPYrLGHDPYR
- Fold change KO/WT (MCF7 cells; [7]): -1.602
- CARM1 140-608/WT (MCF7 CARM1 KO cells): -1.775
- KO/WT (MCF7 CARM1 KO cells): -1.602

Substance: GASQAGMTGYGMPrQIL
- Fold change KO/WT (MCF7 cells; [7]): -2.889
- CARM1 140-608/WT (MCF7 CARM1 KO cells; [16]): -2.236
- KO/WT (MCF7 CARM1 KO cells; [16]): -2.889

Substance: VIGTAVArYNFAAR
- Fold change KO/WT (MCF7 cells; CARM1 KO vs wild type MCF7 cells, 3 biological replicates each): -2.89
- CARM1 140-608/WT (MCF7 CARM1 KO cells; [17]): -1.8723
- KO/WT (MCF7 CARM1 KO cells; [18]): -2.89

Substance: VREELLrHQLLEK
- Fold change KO/WT (MCF7 cells; [1]): -4.282
- CARM1 140-608/WT (MCF7 CARM1 KO cells; [2]): -2.55
- KO/WT (MCF7 CARM1 KO cells; [3]): -4.282

Substance: TGALPGPGPLSNPrLGGLPGPGPMSNPR
- Fold change KO/WT (MCF7 cells; [1]): -3.491
- CARM1 140-608/WT (MCF7 CARM1 KO cells; [13]): -0.9797
- KO/WT (MCF7 CARM1 KO cells; [13]): -1.901

Substance: KPLGTAPHCPrLPLR
- Fold change KO/WT (MCF7 cells; [12]): -3.016
- CARM1 140-608/WT (MCF7 CARM1 KO cells; [19]): -2.281
- KO/WT (MCF7 CARM1 KO cells; [20]): -3.016

Substance: VrINLQQQPPPLQIK
- Fold change KO/WT (MCF7 cells; [7]): -3.801
- CARM1 140-608/WT (MCF7 CARM1 KO cells; [16]): -1.463
- KO/WT (MCF7 CARM1 KO cells; [16]): -4.329

Substance: KSTLKPQPAPQAGPIPVAPIGTLKPQPQPVPASYTTASTSSrPTFNVQVK
- Fold change KO/WT (MCF7 cells; [11]): -3.309
- CARM1 140-608/WT (MCF7 CARM1 KO cells; [5]): -2.692
- KO/WT (MCF7 CARM1 KO cells; [6]): -3.309

Substance: GPGGPrGGLGGGMR
- Fold change KO/WT (MCF7 cells; [12]): 0.08213
- CARM1 140-608/WT (MCF7 CARM1 KO cells; [19]): 0.09567
- KO/WT (MCF7 CARM1 KO cells; [20]): -0.1983

Substance: GArGLMNGYR
- Fold change KO/WT (MCF7 cells; [1]): 0.02481
- CARM1 140-608/WT (MCF7 CARM1 KO cells; [2]): 0.7786
- KO/WT (MCF7 CARM1 KO cells; [3]): 0.02481

Substance: QLVGGSQAFYQrAPYPGSLPLQQQQQQLWQQQQATAATSMrFAMSARFPSTPGPELGR
- Fold change KO/WT (MCF7 cells; [11]): -2.512
- CARM1 140-608/WT (MCF7 CARM1 KO cells; [5]): -1.475
- KO/WT (MCF7 CARM1 KO cells; [6]): -2.512

Substance: LINFQNHSPKPNGPVLPPHPQQLrYPPNQNIPR
- Fold change KO/WT (MCF7 cells; [7]): 0.6311
- CARM1 140-608/WT (MCF7 CARM1 KO cells; [17]): 0.3327
- KO/WT (MCF7 CARM1 KO cells; [18]): 0.1723

Substance: GGAPFQFGGQrRPLLSQLK
- Fold change KO/WT (MCF7 cells; [12]): -0.3698
- CARM1 140-608/WT (MCF7 CARM1 KO cells; [13]): 0.1701
- KO/WT (MCF7 CARM1 KO cells; [13]): 0.08114

Substance: AVDLTKPYQNQQLSIrVPLR
- Fold change KO/WT (MCF7 cells; [1]): -2.685
- CARM1 140-608/WT (MCF7 CARM1 KO cells; [2]): -2.717
- KO/WT (MCF7 CARM1 KO cells; [3]): -4.115

Substance: GSQDSPAVPHPGPLQHWQPENVNQAFTrPPPPYPGNIrSPVAPPLGPrYAVFPK
- Fold change KO/WT (MCF7 cells; [11]): -2.234
- CARM1 140-608/WT (MCF7 CARM1 KO cells; [5]): -1.013
- KO/WT (MCF7 CARM1 KO cells; [6]): -2.722

Substance: QSHTLPFPPPPALPFYPASAYPrHFGPVPPSQGR
- Fold change KO/WT (MCF7 cells; [12]): -1.33
- CARM1 140-608/WT (MCF7 CARM1 KO cells; [13]): -0.8989
- KO/WT (MCF7 CARM1 KO cells; [13]): -1.33

Substance: RPEFMrGGGSGGGR
- Fold change KO/WT (MCF7 cells; [7]): 0.64
- CARM1 140-608/WT (MCF7 CARM1 KO cells; [16]): 0.07419
- KO/WT (MCF7 CARM1 KO cells; [16]): 0.64

Substance: CAGFLEPTWLAAPPrLARPPR
- Fold change KO/WT (MCF7 cells; [12]): -1.902
- CARM1 140-608/WT (MCF7 CARM1 KO cells; [13]): -0.2739
- KO/WT (MCF7 CARM1 KO cells; [13]): -1.902

Substance: FEGGHGPSGAAIrFDGPHGQPGGGIrFEGPLLQQGVGMrFEGPHGQSVAGLR
- Fold change KO/WT (MCF7 cells; [4]): -1.343
- CARM1 140-608/WT (MCF7 CARM1 KO cells; [14]): -0.8121
- KO/WT (MCF7 CARM1 KO cells; [15]): -1.343

Substance: CrQPAPPTSQPPrAQPFAQPPGPWPLSSPGPrLVFNR
- Fold change KO/WT (MCF7 cells; [12]): -3.117
- CARM1 140-608/WT (MCF7 CARM1 KO cells; [13]): -1.684
- KO/WT (MCF7 CARM1 KO cells; [13]): -3.117

Substance: CPADNPGLVQAQPrVPLTPTR
- Fold change KO/WT (MCF7 cells; [7]): -4.345
- CARM1 140-608/WT (MCF7 CARM1 KO cells; [16]): -3.3817
- KO/WT (MCF7 CARM1 KO cells; [16]): -4.345

Substance: SPYTTTrYGSPINTFTVrPGTR
- Fold change KO/WT (MCF7 cells; [1]): -3.428
- CARM1 140-608/WT (MCF7 CARM1 KO cells; [2]): -2.642
- KO/WT (MCF7 CARM1 KO cells; [3]): -5.424

Substance: DQPGTSAVPNLASVGTrLPPPLPQNLLYTVSER
- Fold change KO/WT (MCF7 cells; [8]): -4.596
- CARM1 140-608/WT (MCF7 CARM1 KO cells; [14]): -1.1192
- KO/WT (MCF7 CARM1 KO cells; [15]): -4.635
